Data: article PMC12214830, “The human RIF1-Long isoform interacts with BRCA1 to promote recombinational fork repair under DNA replication stress” (Nature Communications, 2025)

What was measured:
Type in all cases: cell-based, human
[1] = system: RIF1-BRCA1 proximity in RPE-1 cells; assay: RIF1-BRCA1 proximity ligation assay, RPE-1 cells
Description: Proximity ligation assays were performed using the Duolink In Situ PLA Fluorescence Protocol (Sigma-Aldrich, DUO92101) following the manufacturer’s instruction. Cells were grown on glass coverslips and treated as indicated for specific experiments. Cells were then permeabilized with 0.5% TritonX-100 in PBS for 10 min on ice, and fixed with 3% formaldehyde, 2% sucrose in PBS for 10 min at room temperature (RT). After fixation, coverslips were blocked in 3% BSA in PBS for 1 h at RT and incubated with primary antibodies (anti-RIF1, Bethel laboratories A300-568A, 1:1000 dilution; anti-BRCA1, Santa Cruz Biotechnologies, sc-6954, 1:200 dilution), for 1 h at RT in a humidity chamber. Primary antibodies were then washed off with PLA washing buffer A supplied in the Duolink In Situ PLA kit. Coverslips were next incubated sequentially with PLA Probes (1 h at 37 °C), ligation solution (30 min at 37 °C) and amplification solution (100 min at 37 °C), with washes by washing buffer A in between each step. At the end of incubation, coverslips were washed with washing buffer B supplied in the Duolink In Situ PLA kit. Coverslips were then mounted on glass slides with PLA Mounting medium with DAPI. Images were captured by fluorescence microscopy (Zeiss Axio Imager). PLA foci number in each nucleus were analysed by CellProfiler Software[74] with a custom-made pipeline.
For EdU labelling combined with proximity ligation assay, cells were labelled with 10 µM EdU for 15 min, washed free of EdU and next incubated with medium containing 4 mM HU medium for 4 h. Cells were then permeabilized, fixed and subjected to RIF1-BRCA1 PLA procedures. After all PLA steps, EdU detection was performed following manufacturer’s instructions in the Click-iT EdU Imaging Kit (Invitrogen, C10640).
(§1) For proximity ligation assays and immunofluorescence signal intensity measurements, when comparing between two samples, statistical significance of differences was calculated by Mann-Whitney test for non-parametric distributions using GraphPad Prism software (v.9). When comparing among three or more samples, p values were calculated by Kruskal-Wallis test for non-parametric distributions with Dunn’s multiple comparisons using GraphPad Prism software (v.9). For RIF1 foci formation analysis (Fig. 6B), p values were calculated by two-tailed Student’s t test. For nuclear BRCA1 intensity fold change analyses (Fig. 6C, D), p values were calculated by two-tailed one-sample t test using GraphPad Prism software (v.9). For RAD51 foci formation analyses (Fig. 7B, E and Supplementary Fig. 7B), p values were calculated by chi-square test. For HR Reporter assay analysis (Fig. 7G and Supplementary Fig. 7L), p values were calculated by two-tailed paired Student’s t test. For micronuclei frequency analysis (Fig. 7H), p values were calculated by one-tailed paired Student’s t test. All Student’s t tests were performed with Excel T.TEST function. Chi-square tests were performed with the online Chi-square test calculator at https://www.socscistatistics.com/tests/chisquare2/default2.aspx. Sample number n for all box-and-whisker plots and dot plots are listed in Supplementary Data 1.

[2] = system: ssDNA; assay: native IdU immunofluorescence (ssDNA), RPE-1 cells; conditions: HU 4 mM 24 h
Description: For detection of iododeoxyuridine (IdU) by immunofluorescence, cells were grown in the presence of 10 µM IdU for 72 h (with Morpholinos added at 24 h and HU added at 48 h). Cells were then permeabilized with 0.5% TritonX-100 in PBS for 7 min on ice, fixed with 4% w/v formaldehyde solution for 15 min at RT, and treated again with 0.5% TritonX-100 in PBS for 10 min on ice. Coverslips were immunostained as described above.

[3] = system: RIF1-L interaction with BRCA1; assay: RIF1-BRCA1 / RIF1-BRCA1-BRCT co-immunoprecipitation, Flp-In T-REx 293 cells; conditions: HU 4 mM, 4 h or 24 h; Fig. 5H, I
Description: For mCherry IP and GFP IP, cells were washed once with ice-cold TBS, lysed with IP lysis buffer (1X TBS, 0.5 mM EDTA, 1% CHAPS, 1 mM PMSF, 3 mM MgCl2, 1X Halt Protease & Phosphatase inhibitor), and incubated with 1 µl/ml Benzonase (Sigma-Aldrich, E1014) for 45 min at 4 °C with rotation. RFP-Trap or GFP-Trap Magnetic Agarose beads (Chromotek) were washed three times in IP buffer 1 (1X TBS, 0.5 mM EDTA) and then incubated with cell lysates for 1 h at 4 °C with rotation. Beads were next washed three times with IP washing buffer (1X TBS, 0.5 mM EDTA, 0.1% CHAPS, 1 mM PMSF, 250 mM NaCl, 1X Halt Protease & Phosphatase inhibitor), after which bead-bound proteins (IP fractions) were eluted by heating at 95 °C for 7 min. IP fractions were analysed by western blotting.
For FLAG IP, cell lysates were prepared in the same way. Dynabeads magnetic beads (Invitrogen) were incubated with […] anti-FLAG antibody (Sigma-Aldrich, F1804) in PBS supplemented with 0.02% Tween-20) for 10 min at RT with rotation. The antibody-bound beads were incubated with cell lysates for 1 h at 4 °C with rotation. Beads were then washed three times with PBS, after which bead-bound proteins (IP fractions) were eluted by heating at 95 °C for 7 min. IP fractions were analysed by western blotting.

[4] = system: micronuclei; assay: micronuclei frequency, HeLa cells; conditions: HeLa RIF1-L vs RIF1-S or RIF1-L-APKF; HU 4 mM 24 h
Description: as §1

[5] = Fig S4F (repeat of 4E), 0h post-HU
[6] = Fig S4F (repeat of 4E), 4h post-HU
[7] = Fig S4F (repeat of 4E), 8h post-HU

## NC(=O)NO [HU, hydroxyurea]
[1]; 4 h after HU removal
  RIF1-BRCA1 proximity signal after HU removal: retained
[1]; 8 h post-release
  RIF1-BRCA1 proximity signal after HU removal: declined to baseline level
[1]; Fig 3B, HU 4 mM 3 h
  RIF1-BRCA1 PLA foci per nucleus, mean: 1.331
  RIF1-BRCA1 PLA foci per nucleus, median: 1
[1]; Fig 3B, HU 24 h
  RIF1-BRCA1 PLA foci per nucleus, mean: 3.899
  RIF1-BRCA1 PLA foci per nucleus, median: 3
[1]; Fig 3C, HU 4 mM 24 h
  RIF1-BRCA1 PLA foci per nucleus, mean: 2.024
  RIF1-BRCA1 PLA foci per nucleus, median: 1
[1]; Fig 4E, 0h post-HU
  RIF1-BRCA1 PLA foci per nucleus, mean: 1.913
  RIF1-BRCA1 PLA foci per nucleus, median: 1, 1, 1, 1
[1]; Fig 4E, 4h post-HU
  RIF1-BRCA1 PLA foci per nucleus, mean: 1.712
  RIF1-BRCA1 PLA foci per nucleus, median: 1, 1, 1, 1
[1]; Fig 4E, 8h post-HU
  RIF1-BRCA1 PLA foci per nucleus, mean: 0.946
  RIF1-BRCA1 PLA foci per nucleus, median: 1, 1, 1, 1
[1]; Fig 4F, HU 4 mM 24 h
  RIF1-BRCA1 PLA foci per nucleus, mean: 7.107
  RIF1-BRCA1 PLA foci per nucleus, median: 5
[1]; [5]
  RIF1-BRCA1 PLA foci per nucleus, mean: 0.786
  RIF1-BRCA1 PLA foci per nucleus, median: 0, 0, 0, 0
[1]; [6]
  RIF1-BRCA1 PLA foci per nucleus, mean: 0.617
  RIF1-BRCA1 PLA foci per nucleus, median: 0, 0, 0, 0
[1]; [7]
  RIF1-BRCA1 PLA foci per nucleus, mean: 0.355
  RIF1-BRCA1 PLA foci per nucleus, median: 0, 0, 0, 0
[1]; Fig S4G (repeat), HU 4mM 24hr
  RIF1-BRCA1 PLA foci per nucleus, mean: 7.828
  RIF1-BRCA1 PLA foci per nucleus, median: 6
[1]; Fig S4J, HU 4mM 24hr
  RIF1-BRCA1 PLA foci per nucleus, mean: 7.107
  RIF1-BRCA1 PLA foci per nucleus, median: 0, 5, 5
[1]; HU 3 h
  RIF1-BRCA1 PLA foci: observable
[1]; HU 24 h
  RIF1-BRCA1 PLA foci: significantly increased
[2]
  native IdU staining: both increased upon HU treatment
[3]
  RIF1-L interaction with BRCA1: increased RIF1-L interaction with BRCA1
[4]
  frequency of micronuclei following HU: RIF1-L cells exhibited a lower frequency of micronuclei following HU treatment than RIF1-S or RIF1-L-APKF cells
